Results taken from PMC9944328 (Nature Communications, 2023).
Where “and” joins values, the source holds several entries; their conditions need not be identical. Equal values may be shown once.

Target: SSTR2 (Homo sapiens, UniProt P30874)
Assay: SSTRs Gi-mediated cAMP inhibition, GloSensor, HEK293, 5 μM forskolin, 15 min room temperature (SSTR2 wild-type);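 on Bottom (best-fit value): normalized to the maximal wild-type response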;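 on Bottom (best-fit): normalized to the maximal wild-type response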;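 on Span (best-fit value), cAMP inhibition: normalized to the maximal wild-type response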;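 on Span (best-fit value): normalized to the maximal wild-type response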;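 on Span (best-fit): normalized to the maximal wild-type response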;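 on Span: normalized to the maximal wild-type response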;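 on Top (best-fit): normalized to the maximal wild-type response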
Format: cell-based
Parameters: Best-fit Top, cAMP inhibition / Span, cAMP inhibition / Best-fit Bottom / Best-fit Top / Best-fit Span / Bottom / Span (best-fit value), cAMP inhibition / Top (best-fit value), cAMP inhibition: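 normalized to the maximal wild-type response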
Settings: for Span / Top: best-fit, runs 1-3
Experimental: The levels of the intracellular 3′, 5′-cyclic AMP (cAMP) were measured by the GloSensor cAMP assay (Promega) as described in the previous studies[28],[41] which has been widely used. The human full-length SSTRs and mutants were cloned into the pcDNA3.1+ vector with a HA signal sequence followed by a Flag tag at the N-terminus. HEK293 cells (ATCC, CRL-1573) were seeded into 6-well microplates at a density of 1.0 × 10^6 cells/well and cultured for 24 h at 37 °C with 5% CO2. Cells were then co-transfected with SSTR wild-type or mutants and GloSensor plasmids. After 24 h of transfection, the cells were dissociated with TrypLE™ Express Enzyme (1X) (Thermo Fisher Scientific) and collected by centrifugation at 500 × g for 5 min. Then the collected cells were suspended in Hank’s balanced salt solution [HBSS (Thermo Fisher Scientific)] supplemented with […] (YEASEN), and then the suspension cells were seeded into 96-well plates with 90 μl/well. After incubating at room temperature for 40 min, 5 μM forskolin and ligands diluted in HBSS were added to each well and the plates were incubated at room temperature for 15 min. […] were measured using the Synergy H1 microplate reader (BioTek) and the data presented are means of at least three independent experiments.

[1] = WT-1 (run 1 of each mutant's batch)

Chain of SSTR2 (P30874 whole entry): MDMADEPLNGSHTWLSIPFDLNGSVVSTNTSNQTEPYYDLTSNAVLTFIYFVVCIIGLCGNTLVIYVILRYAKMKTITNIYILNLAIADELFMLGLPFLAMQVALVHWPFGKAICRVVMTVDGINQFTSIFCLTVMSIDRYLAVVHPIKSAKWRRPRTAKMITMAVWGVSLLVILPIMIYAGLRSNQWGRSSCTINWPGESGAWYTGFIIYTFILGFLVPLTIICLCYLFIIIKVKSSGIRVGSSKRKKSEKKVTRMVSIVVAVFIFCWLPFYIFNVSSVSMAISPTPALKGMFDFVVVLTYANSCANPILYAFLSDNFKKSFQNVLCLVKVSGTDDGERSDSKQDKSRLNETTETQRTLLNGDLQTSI

N#Cc1cccc(-c2ccc3ncc(-c4cc(F)cc(F)c4)c(N4CCC(N)CC4)c3c2)c1O [paltusotine]
EC50 (EC50, Gi signaling, SSTR2 WT, n=6): 1.88 ± 3.15 nM | EC50 (EC50, WT-1, run paired with D295F): 0.307 nM | EC50 (EC50, WT-1, run paired with F294Y): 0.307 nM | EC50 (EC50, WT-1, run paired with I195M): 1.09 nM | EC50 (EC50, WT-1, run paired with T194H): 1.16 nM | EC50 (EC50, WT-1, run paired with V103N): 2.1 nM | EC50 (EC50, WT-1, run paired with Y205R): 0.537 nM | EC50 (EC50, WT-2, run paired with D295F): 0.501 nM | EC50 (EC50, WT-2, run paired with F294Y): 0.501 nM | EC50 (EC50, WT-2, run paired with I195M): 2.02 nM | EC50 (EC50, WT-2, run paired with T194H): 1.6 nM | EC50 (EC50, WT-2, run paired with V103N): 1.35 nM | EC50 (EC50, WT-2, run paired with Y205R): 0.536 nM | EC50 (EC50, WT-3, run paired with D295F): 1.09 nM | EC50 (EC50, WT-3, run paired with F294Y): 1.16 nM | EC50 (EC50, WT-3, run paired with T194H): 1.35 nM | EC50 (EC50, WT-3, run paired with V103N): 1.08 nM | EC50 (EC50, WT-3, run paired with Y205R): 2.1 nM | EC50 (EC50, cAMP inhibition best-fit, D122A set, WT-1): 2.35 nM | EC50 (EC50, cAMP inhibition best-fit, D122A set, WT-2): 2.66 nM | EC50 (EC50, cAMP inhibition best-fit, D122A set, WT-3): 0.501 nM | EC50 (EC50, cAMP inhibition best-fit, F127A set, WT-1): 1.55 nM | EC50 (EC50, cAMP inhibition best-fit, F127A set, WT-2): 1.16 nM | EC50 (EC50, cAMP inhibition best-fit, F127A set, WT-3): 0.298 nM | EC50 (EC50, cAMP inhibition best-fit, I130A set, WT-1): 0.295 nM | EC50 (EC50, cAMP inhibition best-fit, I130A set, WT-2): 0.321 nM | EC50 (EC50, cAMP inhibition best-fit, I130A set, WT-3): 1.13 nM | EC50 (EC50, cAMP inhibition best-fit, Q102A set, WT-2): 1.19 nM | EC50 (EC50, cAMP inhibition best-fit, Q102A set, WT-3): 1 nM | EC50 (EC50, cAMP inhibition best-fit, Q126A set, WT-1): 0.777 nM | EC50 (EC50, cAMP inhibition best-fit, Q126A set, WT-2): 1.58 nM | EC50 (EC50, cAMP inhibition best-fit, Q126A set, WT-3): 0.845 nM | EC50 (EC50, cAMP inhibition best-fit, V103A set, WT-1): 1.58 nM | EC50 (EC50, cAMP inhibition best-fit, V103A set, WT-2): 0.605 nM | EC50 (EC50, cAMP inhibition best-fit, V103A set, WT-3): 1.19 nM | EC50 (EC50, subtype selectivity series, Suppl. Tables 4/5, SSTR2-WT, n=6): 2.08 ± 1.39 nM | Bottom (best-fit value) (F208A panel, WT-1 (run 1)): -1.411 | LogEC50 (best-fit value) (F208A panel, WT-1 (run 1)): -9.3 | Span (best-fit value) (F208A panel, WT-1 (run 1)): 105.2 | Top (best-fit value) (F208A panel, WT-1 (run 1)): 103.8 | Bottom (best-fit value) (F208A panel, WT-2 (run 2)): 4.431 | LogEC50 (best-fit value) (F208A panel, WT-2 (run 2)): -8.26 | Span (best-fit value) (F208A panel, WT-2 (run 2)): 92.56 | Top (best-fit value) (F208A panel, WT-2 (run 2)): 96.99 | Bottom (best-fit value) (F208A panel, WT-3 (run 3)): 0.6589 | LogEC50 (best-fit value) (F208A panel, WT-3 (run 3)): -8.524 | Span (best-fit value) (F208A panel, WT-3 (run 3)): 92.36 | Top (best-fit value) (F208A panel, WT-3 (run 3)): 93.02 | Bottom (best-fit value) (F265A panel, WT-1 (run 1)): -3.016 | LogEC50 (best-fit value) (F265A panel, WT-1 (run 1)): -8.949 | Span (best-fit value) (F265A panel, WT-1 (run 1)): 106.8 | Top (best-fit value) (F265A panel, WT-1 (run 1)): 103.7 | Bottom (best-fit value) (F265A panel, WT-2 (run 2)): -3.466 | LogEC50 (best-fit value) (F265A panel, WT-2 (run 2)): -9.53 | Span (best-fit value) (F265A panel, WT-2 (run 2)): 116.5 | Top (best-fit value) (F265A panel, WT-2 (run 2)): 113 | Bottom (best-fit value) (F265A panel, WT-3 (run 3)): -6.932 | LogEC50 (best-fit value) (F265A panel, WT-3 (run 3)): -9.494 | Span (best-fit value) (F265A panel, WT-3 (run 3)): 126.2 | Top (best-fit value) (F265A panel, WT-3 (run 3)): 119.3 | Bottom (best-fit value) (F272A panel, WT-1 (run 1)): -5.769 | Top (best-fit value) (F272A panel, WT-1 (run 1)): 108 | Bottom (best-fit value) (F272A panel, WT-2 (run 2)): -4.038 | Top (best-fit value) (F272A panel, WT-2 (run 2)): 107.8 | Bottom (best-fit value) (F272A panel, WT-3 (run 3)): -0.5501 | Top (best-fit value) (F272A panel, WT-3 (run 3)): 106.1 | Fold of WT (Gi signaling EC50, SSTR2 WT): 1 | Emax (HEK293): 100% | Bottom (best-fit value) (P220A panel, WT-1 (run 1)): -3.466 | LogEC50 (best-fit value) (P220A panel, WT-1 (run 1)): -9.53 | Span (best-fit value) (P220A panel, WT-1 (run 1)): 116.5 | Top (best-fit value) (P220A panel, WT-1 (run 1)): 113 | Bottom (best-fit value) (P220A panel, WT-2 (run 2)): -6.932 | LogEC50 (best-fit value) (P220A panel, WT-2 (run 2)): -9.494 | Span (best-fit value) (P220A panel, WT-2 (run 2)): 126.2 | Top (best-fit value) (P220A panel, WT-2 (run 2)): 119.3 | Bottom (best-fit value) (P220A panel, WT-3 (run 3)): -3.016 | LogEC50 (best-fit value) (P220A panel, WT-3 (run 3)): -8.949 | Span (best-fit value) (P220A panel, WT-3 (run 3)): 106.8 | Top (best-fit value) (P220A panel, WT-3 (run 3)): 103.7 | Activation potency level (SSTR2, Fig. 1): nanomolar level | Fold of WT (Suppl. Tables 4/5, SSTR2-WT): 1.00 | Bottom (best-fit value) (W269A panel, WT-1 (run 1)): -3.016 | LogEC50 (best-fit value) (W269A panel, WT-1 (run 1)): -8.949 | Span (best-fit value) (W269A panel, WT-1 (run 1)): 106.8 | Top (best-fit value) (W269A panel, WT-1 (run 1)): 103.7 | Bottom (best-fit value) (W269A panel, WT-2 (run 2)): -3.466 | LogEC50 (best-fit value) (W269A panel, WT-2 (run 2)): -9.53 | Span (best-fit value) (W269A panel, WT-2 (run 2)): 116.5 | Top (best-fit value) (W269A panel, WT-2 (run 2)): 113 | Bottom (best-fit value) (W269A panel, WT-3 (run 3)): -6.932 | LogEC50 (best-fit value) (W269A panel, WT-3 (run 3)): -9.494 | Span (best-fit value) (W269A panel, WT-3 (run 3)): 126.2 | Top (best-fit value) (W269A panel, WT-3 (run 3)): 119.3 | Span (WT (I195A set)): 93.39 and 87.67 and 121.7 | Top (WT (I195A set)): 108 and 99.03 and 119.3 | LogEC50 (WT (I195A set), run 1, best-fit): -8.654 | LogEC50 (WT (I195A set), run 2, best-fit): -8.922 | LogEC50 (WT (I195A set), run 3, best-fit): -8.801 | Span (WT (I284A set)): 107.7 and 93.27 and 111.5 | Top (WT (I284A set)): 108.3 and 104.9 and 129.6 | LogEC50 (WT (I284A set), run 1, best-fit): -8.585 | LogEC50 (WT (I284A set), run 2, best-fit): -8.622 | LogEC50 (WT (I284A set), run 3, best-fit): -8.252 | Span (WT (L99A set)): 106.7 and 113.8 and 111.8 | Top (WT (L99A set)): 106.1 and 108 and 107.8 | LogEC50 (WT (L99A set), run 1, best-fit): -8.998 | LogEC50 (WT (L99A set), run 2, best-fit): -8.575 | LogEC50 (WT (L99A set), run 3, best-fit): -8.63 | Span (WT (T194A set)): 106.7 and 111.2 and 111 | Top (WT (T194A set)): 106.1 and 108.7 and 106.2 | LogEC50 (WT (T194A set), run 1, best-fit): -8.998 | LogEC50 (WT (T194A set), run 2, best-fit): -8.908 | LogEC50 (WT (T194A set), run 3, best-fit): -8.937 | Span (WT (Y50A set)): 113.7 and 115.8 and 115.1 | Top (WT (Y50A set)): 113.6 and 115.8 and 115.7 | LogEC50 (WT (Y50A set), run 1, best-fit): -8.071 | LogEC50 (WT (Y50A set), run 2, best-fit): -8.114 | LogEC50 (WT (Y50A set), run 3, best-fit): -8.128 | Span (best-fit value), cAMP inhibition [1]: 113.8 and 111.2 and 111.8 and 104.8 and 106.7 | Top (best-fit value), cAMP inhibition [1]: 108.7 and 107.8 and 108 and 105.3 and 106.1 | Bottom (best-fit) (WT-1, run paired with D295F): 3.567 | LogEC50 (WT-1, run paired with D295F): -9.512 | Span (best-fit) (WT-1, run paired with D295F): 103.1 | Top (best-fit) (WT-1, run paired with D295F): 106.7 | Bottom (best-fit) (WT-1, run paired with F294Y): 3.567 | LogEC50 (WT-1, run paired with F294Y): -9.512 | Span (best-fit) (WT-1, run paired with F294Y): 103.1 | Top (best-fit) (WT-1, run paired with F294Y): 106.7 | Bottom (best-fit) (WT-1, run paired with I195M): 12.84 | LogEC50 (WT-1, run paired with I195M): -8.964 | Span (best-fit) (WT-1, run paired with I195M): 85.7 | Top (best-fit) (WT-1, run paired with I195M): 98.54 | Bottom (best-fit) (WT-1, run paired with T194H): -4.818 | LogEC50 (WT-1, run paired with T194H): -8.937
